row,Structure (SMILES),melting point
1,"O=C(Nc1ccc(Cl)nc1)c1ccc(NCc2ccccn2)c(F)c1 [Compound 33, N-(6-Chloro-pyridin-3-yl)-3-fluoro-4-[(pyridin-2-ylmethyl)-amino]-benzamide]",210 to 211 °C
2,"O=C(Nc1ccc(Cl)nc1)c1ccc(Cl)o1 [Compound 21, 5-Chloro-furan-2-carboxylic acid (6-chloro-pyridin-3-yl)-amide]",143 to 144 °C
3,"O=C(Nc1ccc(Cl)nc1)c1cc2ccccc2[nH]1 [Compound 26, 1H-Indole-2-carboxylic acid (6-chloro-pyridin-3-yl)-amide]",260 to 263 °C
4,"O=C(Nc1ccc(F)nc1)c1cnc(F)c(F)c1 [Compound 15, 5,6-Difluoro-N-(6-fluoro-pyridin-3-yl)-nicotinamide]",135 to 137 °C
5,"O=C(Nc1ccc(Cl)nc1)c1ccc(-c2ccccc2)cc1 [Compound 6, Biphenyl-4-carboxylic acid (6-chloro-pyridin-3-yl)-amide]",227 to 229 °C
6,"O=C(Nc1ccc(Cl)nc1)c1ccc([N+](=O)[O-])cc1 [Compound 42, N-(6-Chloro-pyridin-3-yl)-4-nitro-benzamide]",193 °C
7,"O=C(Nc1ccc(Cl)nc1)c1cc2cc(F)ccc2[nH]1 [Compound 17, 5-Fluoro-1 H-indole-2-carboxylic acid (6-chloro-pyridin-3-yl)-amide]",290 °C
8,"CN(C)c1ccc(C(=O)Nc2ccc(Cl)nc2)cc1F [Compound 34, N-(6-Chloro-pyridin-3-yl)-4-dimethylamino-3-fluoro-benzamide]",170 to 171 °C
9,"O=C(Nc1ccc(Cl)nc1)c1cc2cc(Cl)ccc2o1 [Compound 19, 5-Chloro-benzofuran-2-carboxylic acid (6-chloro-pyridin-3-yl)-amide]",222 to 223 °C
10,"Cc1c(C(=O)Nc2ccc(Cl)nc2)[nH]c2ccccc12 [Compound 23, 3-Methyl-1 H-indole-2-carboxylic acid (6-chloro-pyridin-3-yl)-amide]",184 to 185 °C
11,"CCc1ccc2[nH]c(C(=O)Nc3ccc(Cl)nc3)cc2c1 [Compound 24, 5-Ethyl-1 H-indole-2-carboxylic acid (6-chloro-pyridin-3-yl)-amide]",270 °C
12,"O=C(Nc1ccc(Cl)nc1)c1ccc(Cl)nc1 [Compound 7, 6-Chloro-N-(6-chloro-pyridin-3-yl)-nicotinamide]",228 °C
13,"Cc1cc(C(=O)Nc2ccc(Cl)nc2)ccc1[N+](=O)[O-] [Compound 16, N-(6-Chloro-pyridin-3-yl)-3-methyl-4-nitro-benzamide]",192 to 193 °C
14,"O=C(Nc1ccc(Cl)nc1)c1ccc(Cl)s1 [Compound 20, 5-Chloro-thiophene-2-carboxylic acid (6-chloro-pyridin-3-yl)-amide]",215 to 216 °C
15,"O=C(Nc1ccc(Cl)nc1)c1ccc(NC(=O)c2ccccn2)cc1 [Compound 35, Pyridine-2-carboxylic acid [4-(6-chloro-pyridin-3-ylcarbamoyl)-phenyl]-amide]",258 to 260 °C
16,"O=C(Nc1ccc(Cl)nc1)c1cc2cc(Cl)ccc2[nH]1 [Compound 18, 5-Chloro-1 H-indole-2-carboxylic acid (6-chloro-pyridin-3-yl)-amide]",296 °C
17,"O=C(Nc1ccc(Cl)nc1)c1ccc([N+](=O)[O-])c(F)c1 [Compound 37, N-(6-Chloro-pyridin-3-yl)-3-fluoro-4-nitro-benzamide]",205 °C
18,"O=C(Nc1ccc(Cl)nc1)c1ccc(N2CCOCC2)c(F)c1 [Compound 31, N-(6-Chloro-pyridin-3-yl)-3-fluoro-4-morpholin-4-yl-benzamide]",228 to 229 °C

# Now from value to molecule:
row,melting point,Structure (SMILES)
1,169 to 170 °C,"O=C(Nc1ccc(Cl)nc1)c1cccc(C(F)(F)F)c1 [Compound 10, N-(6-Chloro-pyridin-3-yl)-3-(trifluoromethyl)-benzamide]"
2,193 °C,"Nc1ccc(C(=O)Nc2ccc(Cl)nc2)cc1F [Compound 41, 4-Amino-N-(6-chloro-pyridin-3-yl)-3-fluoro-benzamide]"
3,160 °C,"O=C(Nc1ccc(Cl)nc1)c1cccc(F)c1 [Compound 9, N-(6-Chloro-pyridin-3-yl)-3-fluoro-benzamide]"
4,182 °C,"O=C(Nc1ccc(Cl)nc1)c1ccc(C(F)(F)F)c(F)c1 [Compound 12, N-(6-Chloro-pyridin-3-yl)-3-fluoro-4-trifluoromethyl-benzamide]"
5,188 to 189 °C,"O=C(Nc1ccc(Cl)nc1)c1ccc(Cl)c(Cl)c1 [Compound 2, 3,4-Dichloro-N-(6-chloro-pyridin-3-yl)-benzamide]"
6,139 to 140 °C,"O=C(Nc1ccc(Cl)nc1)c1cccc(C(F)(F)F)c1 [Compound 3, N-(6-Chloro-pyridin-3-yl)-3-trifluoromethyl-benzamide]"
7,163 to 164 °C,"O=C(Nc1ccc(Cl)nc1)c1ccccc1 [Compound 25, N-(6-Chloro-pyridin-3-yl)-benzamide]"
8,197 to 199 °C,"O=C(Nc1ccc(Cl)nc1)c1ccc(Cl)cc1 [Compound 14, N-(6-Chloro-pyridin-3-yl)-4-chloro-benzamide]"
9,153 to 154 °C,"O=C(Nc1ccc(Cl)nc1)c1cccc(Cl)c1 [Compound 5, 3-Chloro-N-(6-chloro-pyridin-3-yl)-benzamide]"

# Source: patent publication US6495550B2, “Pyridine-substituted benzanilides as potassium ion channel openers” (ICAgen, Inc., priority 1999, dated 2002)
